Laboratory results as given in patent US9113629B2, “4-amino-6-(4-substituted-phenyl)-picolinates and 6-amino-2-(4-substituted-phenyl)-pyrimidine-4-carboxylates and their use as herbicides” (DOW AGROSCIENCES LLC, priority 2013, dated 2015).
Where two headings read alike, the source gives them in different places.

How the values were obtained:
[1] = tested on: Key Grass and Sedge Weeds as well as Grass Crops; test: Post-emergent Test II herbicidal activity (Table 6); assay type: in vivo; details: post-emergence, 336 h; for pest or weed control at 70 g/ha: 70 g ai/ha; for pest or weed control at 140 g/ha: 140 g ai/ha
How it was run: (§1)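 Visual injury ratings (0 = no injury, 100 = complete kill) were taken 14 d after treatment, relative to untreated plants. Seedlings at the first–second true leaf stage received overhead spray at 187 L/ha; the highest rate was serially diluted to ½×, ¼×, ⅛× and 1/16×.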

[2] = tested on: Key Broadleaf Weed and Crop Species; test: Post-emergent Test II herbicidal activity (Table 5); assay type: in vivo; details: post-emergence, 336 h, 14 days after application; for pest or weed control at 70 g/ha: application rate 70 g ai/ha; for pest or weed control at 140 g/ha: application rate 140 g ai/ha
How it was run: as §1

[3] = CYPES: yellow nutsedge (Cyperus esculentus), read-out: Visual Growth Reduction (%) 14 Days After Application, CYPES
[4] = DIGSA: crabgrass (Digitaria sanguinalis), read-out: Visual Growth Reduction (%) 14 Days After Application, DIGSA
[5] = ECHCG: barnyardgrass (Echinochloa crus-galli), read-out: Visual Growth Reduction (%) 14 Days After Application, ECHCG
[6] = ORYSA: rice (Oryza sativa), crop, read-out: Visual Growth Reduction (%) 14 Days After Application, ORYSA
[7] = SETFA: giant foxtail (Setaria faberi), read-out: Visual Growth Reduction (%) 14 Days After Application, SETFA
[8] = SORVU: grain sorghum (Sorghum vulgare), read-out: Visual Growth Reduction (%) 14 Days After Application, SORVU
[9] = TRZSS (wheat, Triticum aestivum), crop, read-out: Visual Growth Reduction (%) 14 Days After Application, TRZSS
[10] = ZEAMX: maize, corn (Zea mays), crop, read-out: Visual Growth Reduction (%) 14 Days After Application, ZEAMX
[11] = ABUTH: velvetleaf (Abutilon theophrasti), read-out: Visual Growth Reduction (%) 14 Days After Application, ABUTH
[12] = AMARE: redroot pigweed (Amaranthus retroflexus), read-out: Visual Growth Reduction (%) 14 Days After Application, AMARE
[13] = BRSNN: oilseed-rape, canola (Brassica napus), read-out: Visual Growth Reduction (%) 14 Days After Application, BRSNN
[14] = CHEAL: lambsquarters (Chenopodium album), read-out: Visual Growth Reduction (%) 14 Days After Application, CHEAL
[15] = EPHHL: wild poinsettia (Euphorbia heterophylla), read-out: Visual Growth Reduction (%) 14 Days After Application, EPHHL
[16] = HELAN: sunflower (Helianthus annuus), read-out: Visual Growth Reduction (%) 14 Days After Application, HELAN
[17] = VIOTR: wild pansy (Viola tricolor), read-out: Visual Growth Reduction (%) 14 Days After Application, VIOTR

| SMILES | pest or weed control at 70 g/ha [1, 3] | pest or weed control at 140 g/ha [1, 3] | pest or weed control at 70 g/ha [1, 4] | pest or weed control at 140 g/ha [1, 4] | pest or weed control at 70 g/ha [1, 5] | pest or weed control at 140 g/ha [1, 5] | pest or weed control at 70 g/ha [1, 6] | pest or weed control at 140 g/ha [1, 6] | pest or weed control at 70 g/ha [1, 7] | pest or weed control at 140 g/ha [1, 7] | pest or weed control at 70 g/ha [1, 8] | pest or weed control at 140 g/ha [1, 8] | pest or weed control at 70 g/ha [1, 9] | pest or weed control at 140 g/ha [1, 9] | pest or weed control at 70 g/ha [1, 10] | pest or weed control at 140 g/ha [1, 10] | melting point | pest or weed control at 70 g/ha [2, 11] | pest or weed control at 140 g/ha [2, 11] | pest or weed control at 70 g/ha [2, 12] | other results |
| --- | --- | --- | --- | --- | --- | --- | --- | --- | --- | --- | --- | --- | --- | --- | --- | --- | --- | --- | --- | --- | --- |
| COC(=O)c1nc(-c2ccccc2)nc(N)c1OC [Compound 175] | 0 to 29% | 0 to 29% | 0 to 29% | 0 to 29% | 0 to 29% | 0 to 29% | 0 to 29% | 0 to 29% | 0 to 29% | 0 to 29% | 0 to 29% | 0 to 29% | 0 to 29% | 0 to 29% | 0 to 29% | 0 to 29% | 123 to 124 °C | 45 to 59% | 45 to 59% | 45 to 59% | pest or weed control at 140 g/ha [2, 12]: 95 to 100%; pest or weed control at 70 g/ha [2, 13]: 0 to 29%; pest or weed control at 140 g/ha [2, 13]: 0 to 29%; pest or weed control at 70 g/ha [2, 14]: 0 to 29%; pest or weed control at 140 g/ha [2, 14]: 30 to 44%; pest or weed control at 70 g/ha [2, 15]: 85 to 94%; pest or weed control at 140 g/ha [2, 15]: 85 to 94%; pest or weed control at 70 g/ha [2, 16]: 45 to 59%; pest or weed control at 140 g/ha [2, 16]: 60 to 74%; pest or weed control at 70 g/ha [2, 17]: 0 to 29%; pest or weed control at 140 g/ha [2, 17]: 0 to 29% |
| COC(=O)c1nc(-c2ccc(Cl)c(F)c2)c(F)c(N)c1Cl [Compound 216] | 85 to 94% | 95 to 100% | 30 to 44% | 75 to 84% | 95 to 100% | 95 to 100% | 0 to 29% | 0 to 29% | 30 to 44% | 45 to 59% | 85 to 94% | 85 to 94% | 0 to 29% | 30 to 44% | 85 to 94% | 85 to 94% | 111 to 114 °C | 95 to 100% | 95 to 100% | 95 to 100% | pest or weed control at 140 g/ha [2, 12]: 95 to 100%; pest or weed control at 70 g/ha [2, 13]: 75 to 84%; pest or weed control at 140 g/ha [2, 13]: 85 to 94%; pest or weed control at 70 g/ha [2, 14]: 95 to 100%; pest or weed control at 140 g/ha [2, 14]: 95 to 100%; pest or weed control at 70 g/ha [2, 15]: 95 to 100%; pest or weed control at 140 g/ha [2, 15]: 95 to 100%; pest or weed control at 70 g/ha [2, 16]: 95 to 100%; pest or weed control at 140 g/ha [2, 16]: 95 to 100%; pest or weed control at 70 g/ha [2, 17]: 85 to 94%; pest or weed control at 140 g/ha [2, 17]: 95 to 100% |
